Values of other authors in article PMC7904743, “WIDOCK: a reactive docking protocol for virtual screening of covalent inhibitors” (Journal of Computer-Aided Molecular Design, 2021).
Where two headings read alike, the source gives them in different places.

Tests used:
OTUB2 = OTUB2 protein labeling; experimental actives if % labeling higher than 50%; cited from earlier work
NUDT7 = conditions: protein labeling at 200 μM; experimental actives if % labeling higher than 50%; cited from earlier work
[1] = thiol reactivity, cited from earlier work
[2] = natural log of average kinetic rate constant
[3] = natural log of average rate constant

## O=C(CCl)NC1CCOc2ccccc21 (stereo not drawn) [PCM-0102871, O=C(CCl)NC1CCOc2ccccc21]
OTUB2
  OTUB2 % labeling: 44%
NUDT7
  NUDT7 % labeling: 0%
[1]; [2]
  ln(avg k): -16.366
[1]; [3]
  ln(avg k): -16.366

## Cc1csc(NC(=O)CCl)n1 [PCM-0102872, Cc1csc(NC(=O)CCl)n1]
OTUB2
  OTUB2 % labeling: 0%
NUDT7
  NUDT7 % labeling: 16%
[1]; [2]
  ln(avg k): -15.785
[1]; [3]
  ln(avg k): -15.785

## O=C(CCl)Nc1cc(F)cc(F)c1 [PCM-0102874, O=C(CCl)Nc1cc(F)cc(F)c1]
OTUB2
  OTUB2 % labeling: 0%
NUDT7
  NUDT7 % labeling: 18%
[1]; [2]
  ln(avg k): -15.799
[1]; [3]
  ln(avg k): -15.799

## N#Cc1ccc(NC(=O)CCl)cc1 [PCM-0102875, N#Cc1ccc(NC(=O)CCl)cc1]
OTUB2
  OTUB2 % labeling: 8%
NUDT7
  NUDT7 % labeling: 14%
[1]; [2]
  ln(avg k): -15.678
[1]; [3]
  ln(avg k): -15.678

## Cc1ccccc1CN1CCN(C(=O)CCl)CC1 [PCM-0102876, Cc1ccccc1CN1CCN(C(=O)CCl)CC1]
OTUB2
  OTUB2 % labeling: 0%
NUDT7
  NUDT7 % labeling: 0%
[1]; [2]
  ln(avg k): -15.594
[1]; [3]
  ln(avg k): -15.594

## CN(C)C(=O)c1ccc(NC(=O)CCl)cc1 [PCM-0102877, CN(C)C(=O)c1ccc(NC(=O)CCl)cc1]
OTUB2
  OTUB2 % labeling: 0%
NUDT7
  NUDT7 % labeling: 0%
[1]; [2]
  ln(avg k): -15.682
[1]; [3]
  ln(avg k): -15.682

## Cc1cc(C)c(C(C)NC(=O)CCl)cc1C (stereo not drawn) [PCM-0102879, Cc1cc(C)c(C(C)NC(=O)CCl)cc1C]
OTUB2
  OTUB2 % labeling: 17%
NUDT7
  NUDT7 % labeling: 0%
[1]; [2]
  ln(avg k): -16.314
[1]; [3]
  ln(avg k): -16.314

## COC(=O)C1CN(C(=O)CCl)c2ccccc2O1 (stereo not drawn) [PCM-0102880, COC(=O)C1CN(C(=O)CCl)c2ccccc2O1]
OTUB2
  OTUB2 % labeling: 11%
NUDT7
  NUDT7 % labeling: 0%
[1]; [2]
  ln(avg k): -17.563
[1]; [3]
  ln(avg k): -17.563

## O=C(CCl)NCC1COc2ccccc2O1 (stereo not drawn) [PCM-0102881, O=C(CCl)NCC1COc2ccccc2O1]
OTUB2
  OTUB2 % labeling: 39%
NUDT7
  NUDT7 % labeling: 0%
[1]; [2]
  ln(avg k): -16.328
[1]; [3]
  ln(avg k): -16.328

## C=CC(=O)NC(=O)Nc1ccccc1 [PCM-0102883, C=CC(=O)NC(=O)Nc1ccccc1]
OTUB2
  OTUB2 % labeling: 0%
NUDT7
  NUDT7 % labeling: 0%
[1]; [2]
  ln(avg k): -16.619
[1]; [3]
  ln(avg k): -16.619

## O=C(CCl)NNC(=O)c1ccc([N+](=O)[O-])cc1 [PCM-0102885, O=C(CCl)NNC(=O)c1ccc([N+](=O)[O-])cc1]
OTUB2
  OTUB2 % labeling: 21%
NUDT7
  NUDT7 % labeling: 0%
[1]; [2]
  ln(avg k): -16.970
[1]; [3]
  ln(avg k): -16.970

## Cc1ccccc1NC(=O)CCl [PCM-0102887, Cc1ccccc1NC(=O)CCl]
OTUB2
  OTUB2 % labeling: 0%
NUDT7
  NUDT7 % labeling: 0%
[1]; [2]
  ln(avg k): -16.445
[1]; [3]
  ln(avg k): -16.445

## O=C(CCl)N1CCN(c2cnccn2)CC1 [PCM-0102889, O=C(CCl)N1CCN(c2cnccn2)CC1]
OTUB2
  OTUB2 % labeling: 0%
NUDT7
  NUDT7 % labeling: 0%
[1]; [2]
  ln(avg k): -15.833
[1]; [3]
  ln(avg k): -15.833

## O=C(CCl)Nc1ccc(Cl)nc1 [PCM-0102891, O=C(CCl)Nc1ccc(Cl)nc1]
OTUB2
  OTUB2 % labeling: 0%
NUDT7
  NUDT7 % labeling: 25%
[1]; [2]
  ln(avg k): -15.610
[1]; [3]
  ln(avg k): -15.610

## CC(=O)Nc1ccc(NC(=O)CCl)c(C(F)(F)F)c1 [PCM-0102895, CC(=O)Nc1ccc(NC(=O)CCl)c(C(F)(F)F)c1]
OTUB2
  OTUB2 % labeling: 0%
NUDT7
  NUDT7 % labeling: 0%
[1]; [2]
  ln(avg k): -16.611
[1]; [3]
  ln(avg k): -16.611

## O=C(CCl)NCC1CCS(=O)(=O)C1 (stereo not drawn) [PCM-0102896, O=C(CCl)NCC1CCS(=O)(=O)C1]
OTUB2
  OTUB2 % labeling: 23%
NUDT7
  NUDT7 % labeling: 0%
[1]; [2]
  ln(avg k): -16.032
[1]; [3]
  ln(avg k): -16.032

## CN(Cc1cc(C#N)ccc1F)C(=O)CCl [PCM-0102897, CN(Cc1cc(C#N)ccc1F)C(=O)CCl]
OTUB2
  OTUB2 % labeling: 0%
NUDT7
  NUDT7 % labeling: 7%
[1]; [2]
  ln(avg k): -15.579
[1]; [3]
  ln(avg k): -15.579

## CN(Cc1ccc(Cl)s1)C(=O)CCl [PCM-0102898, CN(Cc1ccc(Cl)s1)C(=O)CCl]
OTUB2
  OTUB2 % labeling: 0%
NUDT7
  NUDT7 % labeling: 29%
[1]; [2]
  ln(avg k): -15.575
[1]; [3]
  ln(avg k): -15.575

## CN(Cc1cnn(C)c1)C(=O)CCl [PCM-0102899, CN(Cc1cnn(C)c1)C(=O)CCl]
OTUB2
  OTUB2 % labeling: 26%
NUDT7
  NUDT7 % labeling: 8%
[1]; [2]
  ln(avg k): -15.596
[1]; [3]
  ln(avg k): -15.596

## CCN(C(=O)CCl)c1ccc(F)cc1 [PCM-0102900, CCN(C(=O)CCl)c1ccc(F)cc1]
OTUB2
  OTUB2 % labeling: 0%
NUDT7
  NUDT7 % labeling: 29%
[1]; [2]
  ln(avg k): -15.837
[1]; [3]
  ln(avg k): -15.837

## NS(=O)(=O)c1ccccc1NC(=O)CCl [PCM-0102903, NS(=O)(=O)c1ccccc1NC(=O)CCl]
OTUB2
  OTUB2 % labeling: 14%
NUDT7
  NUDT7 % labeling: 29%
[1]; [2]
  ln(avg k): -14.783
[1]; [3]
  ln(avg k): -14.783
